Assays:
HSP70 [1] = assay: Time course of HSP70 expression by ELISA in select tissues after oral CNS-102; assay type: in vivo, Sprague-Dawley rats; details: 12 mg/kg p.o
Protocol: CNS-102 at 12 mg/kg or PBS was administered orally to Sprague-Dawley rats and the time course of HSP70 protein expression in tissues, was measured by ELISA. HSP70 protein expression was determined for lung, testicle, spleen, liver, kidney, blood plasma, skin, peripheral blood monocytes, heart, eye, muscle, intestine, and stomach at each of three time points (8 h, 17 h, 24 h).

HSP70 [2] = assay: Time course of HSP70 expression by western blot in cortex and hippocampus after oral CNS-102; assay type: in vivo; set-up: HSP70 expression (western blot), treatment average: scale not given here
Protocol: The time course of protein expression, as measured by western blot for HSP70, was determined in triplicate for hippocampus, and cortex tissue samples taken from each of 5 animals per group at each of four time points (24, 48, 72, and 96 h) after treatment with either PBS or 12 mg/kg CNS-102, administered orally. The average expression for each treatment group is calculated at each time point for each tissue using PROC MIXED in SAS and are tabulated, along with the difference (delta) between treatment averages and a p-value comparing the difference to zero, below.

[3] = Pharmacological activity of GGA isomers (data of the examples, test not specified); details: at low concentrations
90% hepatectomy = assay: Acute liver damage after 90% hepatectomy; assay type: in vivo, Male Wister rats
Protocol: Male Wister rats weighing 230-260 g are obtained. After an overnight fast, GGA or a GGA derivative (as an emulsion with 5% gum arabic and 0.004% α-tocophenol) or vehicle (5% gum arabic emulsion with 0.004% α-tocophenol) is intragastrically administrated into rats 4 h prior to the operation. After rats are anesthetized, 90% hepatectomy is performed. Briefly, the left, median, right-upper, and right-lower lobes are removed, leaving the caudate lobes, which represent 10-11% of the original liver mass. Liver specimens and blood samples are collected after laparotomy and exsanguinations under deep anesthesia immediately before (0) and 4,8, 12, and 24 h after the operation. Small pieces of liver tissue are immediately stored in an RNeasy stabilization kit (Qiagen, Hilden, Germany). Sera are immediately separated, and the activities of alanine (ALT) and aspartate (AST) aminotransferases are measured.

IEC-18 cells = assay: Protection of intestinal epithelial cells from NH2Cl-induced injury; assay type: cell-based, Rat; details: pretreatment
Protocol: Cell viability is assessed, and endogenous HSP70 levels are determined by enzyme-linked immunosorbent assay in IEC-18 cells.

[4] = tested on: mild to moderate IBD following gastrectomy; assay: Treatment of IBD in gastrectomized patients; assay type: in vivo; details: gastrectomized subjects, daily administration, 12 weeks
Protocol: (§1) A pharmaceutical composition comprising GGA or a GGA derivative as described herein is prepared. A subject is diagnosed with mild to moderate IBD following gastrectomy. […] Subjects are treated for 12 weeks. Subjects keep daily diaries and record the number and nature of bowel movements. The effect of the treatments is assessed by grading clinical symptoms of fecal blood, mucus, and urgency. In addition, sigmoidoscopic assessment and biopsies are performed, and efficacy of treatment assessed, based on grading of sigmoidoscopic and degree of histological inflammation in rectal biopsy specimens. Safety is assessed based on spontaneous side effect reporting.

mild to moderate IBD = assay: Treatment of inflammatory bowel disease (IBD) in subjects; assay type: in vivo; details: daily administration, 12 weeks
Protocol: as §1, with “IBD.” for “IBD following gastrectomy.”

HL-1 cardiomyocytes = assay: In vitro ischemia/reperfusion cardiac disease model; assay type: cell-based, murine; details: HL-1 cells, nutrient-deficiency medium with 2.5 mM hydrogen peroxide
Protocol: Activity is assessed via apoptosis signaling, cell structure and energy-metabolism. The HL-1 cardiomyocytes (murine atrial tumor cell line) are maintained in monolayer culture with Claycomb-medium (Sigma, Germany), Heaving reached confluence and contractile activity, cells are maintained as subcultures. Induction of ischemia was carried out on vital cardiomyocytes at culture day four. The subconfluent, contractile HL-1 cardiomyocytes are placed in nutrient-deficiency medium containing 2.5 mM hydrogen peroxide solution in order to enhance the oxidative stress in HL-1 cells. In control cultures the medium exchange is carried out with standard supplemented Claycomb-medium. 8 h after ischemia induction samples are harvested and revitalization is induced in parallel by replacing nutrient-deficiency medium with fresh Claycomb-medium and incubating cells for another 16 hours. Cell proliferation analysis is done by flow cytometry. Apoptosis analysis is performed by terminal desoxynucleotidyl transferase-mediated dUTP nick end-labeling. Total number of cells are determined using 7-AAD nucleus staining. Additionally formaldehyde-fixed cells on glass coverslips are prepared for immuncytochemical staining.

[5] = tested on: human hepatoma (Bel-7402) cells; assay: Acetaminophen-induced hepatotoxicity cytotoxicity assay with S9 mixture; assay type: cell-based; details: cytotoxic concentration of acetaminophen, vs control conditions
Protocol: In order to test the protective activity of GGA and GGA derivatives from acetaminophen-induced hepatotoxicity, a cytotoxicity assay is employed using human hepatoma (Bel-7402) cells in the presence of S9 mixture. Cell viability and mitochondrial permeability transition (MPT) is assessed in the presence or absence of GGA or GGA derivatives in combination with a cytotoxic concentration of acetaminophen.

[6] = tested on: heterotopically transplanted hearts; assay: Heterotopically transplanted hearts; assay type: in vivo, rats; details: 24 h after transplantation
Protocol: A total of 20 donor rats are randomly divided into 2 groups. One of those receives an oral dose of GGA or a GGA derivative and one is a control group. […] The levels of HSP70 expression in donor hearts and the variation of myocardial enzymes in receptor blood or donor hearts are measured 24 h after transplantation. The donated hearts are also examined under a microscope for pathological changes. HSP70 expression is increase in the GGA-treated group.

[7] = tested on: myocardial ischemia and reperfusion; assay: Myocardial ischemia and reperfusion injury; assay type: in vivo, male rats; details: once orally 24 h before 30 min ischemia, 4 h of reperfusion
Protocol: Lactate dehydrogenase (LDH), creatine kinase (CK), malondialdehyde (MDA), superoxide dismutase (SOD) activity and infarct size are measured.

DSS-induced colitis = assay: Dextran sulfate sodium (DSS)-induced colitis; assay type: in vivo, BALB/c mice
Protocol: BALB/c mice are given 3% DSS solution orally for 7 days to induce colitis. The disease activity of colitis is assessed clinically every day, and histology in the colon is evaluated at 7 days post-DSS. The levels of myeloperoxidase (MPO) activity, tumor necrosis factor (TNF)-alpha and interferon (IFN)-gamma in the colon tissues are also examined. In addition, expression of HSPs 25, 40, 70 and 90 in the colon tissue is determined by Western blot analysis or ELISA. GGA or a GGA derivative is administered orally to mice when treatment of DSS is initiated.

[8] = single oral administration 4 h prior to operation, vs vehicle

CC(=O)CC/C=C(\C)CC/C=C(\C)CC/C=C(\C)CCC=C(C)C [CNS-102]
HSP70 Fold Induction vs. Vehicle Control (HSP70 [1]; Intestine, 8 h): 1.63 fold | HSP70 Fold Induction vs. Vehicle Control (HSP70 [1]; Intestine, 17 h): 1.26 fold | HSP70 Fold Induction vs. Vehicle Control (HSP70 [1]; Intestine, 24 h): 0.64 fold | HSP70 Fold Induction vs. Vehicle Control (HSP70 [1]; PBMC, 8 h): 1.67 fold | HSP70 Fold Induction vs. Vehicle Control (HSP70 [1]; PBMC, 17 h): 1.05 fold | HSP70 Fold Induction vs. Vehicle Control (HSP70 [1]; PBMC, 24 h): 1.09 fold | HSP70 Fold Induction vs. Vehicle Control (HSP70 [1]; Stomach, 8 h): 1.07 fold | HSP70 Fold Induction vs. Vehicle Control (HSP70 [1]; Stomach, 17 h): 1.30 fold | HSP70 Fold Induction vs. Vehicle Control (HSP70 [1]; Stomach, 24 h): 0.96 fold | HSP70 Fold Induction vs. Vehicle Control (HSP70 [1]; heart, 17 h): 1.89 fold | HSP70 Fold Induction vs. Vehicle Control (HSP70 [1]; heart, 24 h): 0.60 fold | HSP70 Fold Induction vs. Vehicle Control (HSP70 [1]; kidney, 8 h): 1.11 fold | HSP70 Fold Induction vs. Vehicle Control (HSP70 [1]; kidney, 17 h): 1.08 fold | HSP70 Fold Induction vs. Vehicle Control (HSP70 [1]; kidney, 24 h): 0.92 fold | HSP70 Fold Induction vs. Vehicle Control (HSP70 [1]; liver, 8 h): 1.24 fold | HSP70 Fold Induction vs. Vehicle Control (HSP70 [1]; liver, 17 h): 1.00 fold | HSP70 Fold Induction vs. Vehicle Control (HSP70 [1]; liver, 24 h): 0.89 fold | HSP70 Fold Induction vs. Vehicle Control (HSP70 [1]; plasma, 8 h): 0.88 fold | HSP70 Fold Induction vs. Vehicle Control (HSP70 [1]; plasma, 17 h): 1.09 fold | HSP70 Fold Induction vs. Vehicle Control (HSP70 [1]; plasma, 24 h): 1.05 fold | HSP70 Fold Induction vs. Vehicle Control (HSP70 [1]; spleen, 8 h): 0.64 fold | HSP70 Fold Induction vs. Vehicle Control (HSP70 [1]; spleen, 17 h): 1.09 fold | HSP70 Fold Induction vs. Vehicle Control (HSP70 [1]; spleen, 24 h): 1.04 fold | HSP70 Fold Induction vs. Vehicle Control (HSP70 [1]; testicle, 8 h): 1.10 fold | HSP70 Fold Induction vs. Vehicle Control (HSP70 [1]; testicle, 17 h): 1.03 fold | HSP70 Fold Induction vs. Vehicle Control (HSP70 [1]; testicle, 24 h): 0.94 fold | HSP70 expression (western blot), treatment average (HSP70 [2]; cortex, 24 hours after 12 mg/kg oral): −0.016 | HSP70 expression (western blot), treatment average (HSP70 [2]; cortex, 48 hours after 12 mg/kg oral): −0.45 | HSP70 expression, delta CNS-102 vs PBS (HSP70 [2]; cortex, 48 hours, 12 mg/kg oral, p-value 0.15): 0.11 | HSP70 expression (western blot), treatment average (HSP70 [2]; cortex, 72 hours after 12 mg/kg oral): 0.14 | HSP70 expression, delta CNS-102 vs PBS (HSP70 [2]; cortex, 72 hours, 12 mg/kg oral, p-value 0.13): 0.13 | HSP70 expression (western blot), treatment average (HSP70 [2]; cortex, 96 hours after 12 mg/kg oral): 0.04 | HSP70 expression, delta CNS-102 vs PBS (HSP70 [2]; cortex, 96 hours, 12 mg/kg oral, p-value 0.09): 0.19 | levels of HSP70 in the cortex after 24 h (HSP70 [2]; cortex, time points after 24 h, 12 mg/kg oral): No significant levels | time of peak HSP70 expression in the hippocampus (HSP70 [2]; hippocampus, 12 mg/kg oral): > 48 h | HSP70 expression (western blot), treatment average (HSP70 [2]; hippocampus, 24 hours after 12 mg/kg oral): −0.159 | HSP70 expression, delta CNS-102 vs PBS (HSP70 [2]; hippocampus, 24 hours, 12 mg/kg oral, p-value 0.16): −0.088 | HSP70 expression (western blot), treatment average (HSP70 [2]; hippocampus, 48 hours after 12 mg/kg oral): 0.02 | HSP70 expression, delta CNS-102 vs PBS (HSP70 [2]; hippocampus, 48 hours, 12 mg/kg oral, p-value 0.14): 0.2 | HSP70 expression (western blot), treatment average (HSP70 [2]; hippocampus, 72 hours after 12 mg/kg oral): −0.06 | HSP70 expression (western blot), treatment average (HSP70 [2]; hippocampus, 96 hours after 12 mg/kg oral): −0.32 | HSP70 expression, delta CNS-102 vs PBS (HSP70 [2]; hippocampus, 96 hours, 12 mg/kg oral, p-value 0.07): 0.17

CC(=O)CC/C=C(/C)CC/C=C(\C)CC/C=C(\C)CCC=C(C)C (single isomer, unassigned) [cis-isomer of GGA, 5Z, 9E, 13E geranylgeranyl acetone]
pharmacological activity and dose-dependent relationship [3]: at best of minimal activity

CC(=O)CC/C=C(\C)CC/C=C(\C)CC/C=C(\C)CCC=C(C)C (single isomer, unassigned) [trans-isomer of GGA, 5E, 9E, 13E geranylgeranyl acetone]
pharmacological activity and dose-dependent relationship [3]: pharmacologically active and shows a dose-dependent relationship

CC(=O)CC/C=C(\C)CC/C=C(\C)CC/C=C(\C)CCC=C(C)C [GGA, Geranylgeranyl acetone]
chaperone induction in liver (gene expression and immunoblot): HSP70, HSP27, BIP (90% hepatectomy; after 90% hepatectomy): induce an endoplasmic reticulum chaperone, BIP | release of aminotransferases (ALT, AST) (90% hepatectomy; [8]): significantly suppresses | survival (90% hepatectomy; [8]): improves survival | HSP70 levels (ELISA) (IEC-18 cells): rapidly elevates HSP70 levels | protection against NH2Cl-induced injury (cell viability) (IEC-18 cells): protects against NH2Cl-induced injury | efficacy in inflammatory bowel disease (treating the condition and maintaining remission) [4]: demonstrate efficacy | efficacy in inflammatory bowel disease (treating the condition and maintaining remission) (mild to moderate IBD): demonstrate efficacy | ischemia induced apoptosis (TUNEL) (HL-1 cardiomyocytes): reduce ischemia induced apoptosis | ischemia-induced reduction of cell proliferation (HL-1 cardiomyocytes): rescue ischemia-induced reduction of cell proliferation | cell viability [5]: increased cell viability | Lactate dehydrogenase concentration in receptor blood ([6]; vs control group): decreased | atriphosphate concentration ([6]; vs control group): higher | creatine kinase muscle band concentration in receptor blood ([6]; vs control group): decreased | malondialdehyde concentration ([6]; vs control group): lower | HSP70 expression in donor hearts ([6]; oral dose to donor 24 h before transplantation): increase | decrease in SOD levels [7]: significantly inhibits | increase in MDA levels [7]: significantly inhibits | infarct size [7]: significantly reduces | level of CK [7]: significantly reduces | level of LDH [7]: significantly reduces | expression of HSP70 in the colon (DSS-induced colitis; mice given DSS): enhances | clinical severity of colitis (DSS-induced colitis; oral, 3% DSS for 7 days): significantly reduces | level of IFN-gamma in the colon (DSS-induced colitis; oral, 3% DSS for 7 days): suppresses | level of MPO activity in the colon (DSS-induced colitis; oral, 3% DSS for 7 days): suppresses | level of TNF-alpha in the colon (DSS-induced colitis; oral, 3% DSS for 7 days): suppresses
